Experimental data taken from article PMC10648349, “Aromatic Diboronic Acids as Effective KPC/AmpC Inhibitors” (Molecules, 2023).
≈ marks a conversion by molar mass, not a printed value.

Columns and labels:
[1] = test system: E. coli 77 CMY-2-positive; assay: combination disc test CDT-AmpC; type: cell-based; details: Escherichia coli, read-out: Diameter of inhibition zone, CAZ-30 disc with agent; for zone of inhibition at 100 µg/disc: agent 0.1 mg per disc
B. subtilis ATCC 6633 = assay: direct antimicrobial activity (disc-diffusion); type: cell-based; details: Bacillus subtilis, ATCC6633; 0.4 mg per disc, 9 mm disc (linezolid 0.03 mg, 6 mm disc); - no zone; read-out: Diameter of inhibition zone
How it was run: (§1)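 Reference drugs were nitrofurantoin for Gram-negative rods, linezolid for Gram-positive bacteria and fluconazole for yeasts. Test agents were dissolved in DMSO and assessed by disc diffusion (0.4 mg/disc), MIC, and MBC or MFC per EUCAST/CLSI.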

[2] = test system: K. pneumoniae ATCC BAA 1705 KPC-2-positive; assay: combination disc test CDT-KPC; type: cell-based; details: Klebsiella pneumoniae, BAA1705, read-out: Diameter of inhibition zone, MEM-10 disc with agent; for zone of inhibition at 100 µg/disc: agent 0.1 mg per disc
C. krusei ATCC 6258 = assay: antifungal activity (disc-diffusion, MIC, MFC); type: cell-based, Candida krusei; details: Pichia kudriavzevii, ATCC6258; for MIC: fluconazole by Etest
How it was run: as §1

[3] = test system: P. aeruginosa MUW 700 cAmpC-positive; assay: combination disc test CDT-AmpC; type: cell-based; details: Pseudomonas aeruginosa, read-out: Diameter of inhibition zone, CAZ-30 disc with agent; for zone of inhibition at 100 µg/disc: agent 0.1 mg per disc
C. tropicalis ATCC 750 = assay: antifungal activity (disc-diffusion, MIC, MFC); type: cell-based; details: Candida tropicalis, ATCC750; for MIC: fluconazole by Etest
How it was run: as §1

S. cerevisiae ATCC 9763 = assay: antifungal activity (disc-diffusion, MIC, MFC); type: cell-based; details: Saccharomyces cerevisiae, ATCC9763; for MIC: fluconazole by Etest; for zone of inhibition at 0.4 mg/disc: 0.4 mg per disc, 9 mm disc (fluconazole 0.025 mg, 6 mm disc), - no zone, read-out: Diameter of inhibition zone
How it was run: as §1

C. tropicalis IBA 171 = assay: antifungal activity (disc-diffusion, MIC, MFC); type: cell-based; details: Candida tropicalis, IBA171; for MIC: fluconazole by Etest
How it was run: as §1

C. albicans ATCC 90028 = assay: antifungal activity (disc-diffusion, MIC, MFC); type: cell-based; details: Candida albicans, ATCC90028; for MIC: fluconazole by Etest
How it was run: as §1

[4] = MTT-based viability assay; type: cell-based; details: human, MRC-5 human fibroblasts, 72 h, read-out: Viability of MRC-5 cells (% of viable cells ± SD)
How it was run: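 Percent viable cells relative to control, measured in triplicate by MTT read-out at 570 nm. Cells: MRC-5 human fibroblasts cultured at 37 °C, 5% CO2 in MEME plus 10% FBS.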

[5] = test system: E. coli 77 CMY-2-positive; assay: checkerboard microdilution, antibiotic plus tested agent; type: cell-based, Escherichia coli
How it was run: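 Read-out is the antibiotic MIC with agent present, plus FICI = combined/alone MIC ratios summed for both partners. Meropenem pairs served for carbapenemase strains and ceftazidime pairs for the AmpC strain. Agent or PBA was tested at 4–16 mg/L.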

[6] = test system: C. parapsilosis ATCC 22019; assay: antifungal activity (disc-diffusion, MIC, MFC); type: cell-based, Candida parapsilosis; details: Lodderomyces parapsilosis, ATCC22019; for MIC: fluconazole by Etest; for zone of inhibition at 0.4 mg/disc: 0.4 mg per disc, 9 mm disc (fluconazole 0.025 mg, 6 mm disc), - no zone, read-out: Diameter of inhibition zone
How it was run: as §1

[7] = test system: C. guilliermondii IBA 155; assay: antifungal activity (disc-diffusion, MIC, MFC); type: cell-based, Candida guilliermondii; details: Meyerozyma guilliermondii, IBA155; for MIC: fluconazole by Etest; for zone of inhibition at 0.4 mg/disc: 0.4 mg per disc, 9 mm disc (fluconazole 0.025 mg, 6 mm disc), - no zone, read-out: Diameter of inhibition zone
How it was run: as §1

S. aureus ATCC 6538P = assay: direct antimicrobial activity (disc-diffusion, MIC, MBC); type: cell-based; details: Staphylococcus aureus, ATCC6538P; for zone of inhibition at 0.4 mg/disc: 0.4 mg per disc, 9 mm disc (linezolid 0.03 mg, 6 mm disc), - no zone, read-out: Diameter of inhibition zone
How it was run: as §1

E. faecalis ATCC 29212 = assay: as above; type: cell-based; details: Enterococcus faecalis, ATCC29212
How it was run: as §1

[8] = test system: S. epidermidis ATCC 12228; assay: as above; type: cell-based; details: Staphylococcus epidermidis, ATCC12228; for zone of inhibition at 0.4 mg/disc: 0.4 mg per disc, 9 mm disc (linezolid 0.03 mg, 6 mm disc), - no zone, read-out: Diameter of inhibition zone
How it was run: as §1

[9] = test system: S. aureus ATCC 43300 MRSA; assay: as above; type: cell-based; details: Staphylococcus aureus; for zone of inhibition at 0.4 mg/disc: 0.4 mg per disc, 9 mm disc (linezolid 0.03 mg, 6 mm disc), - no zone, read-out: Diameter of inhibition zone
How it was run: as §1

E. faecium ATCC 6057 = assay: as above; type: cell-based; details: Enterococcus faecium, ATCC6057
How it was run: as §1

[10] = 0.4 mg per disc, 9 mm disc (linezolid 0.03 mg, 6 mm disc), - no zone, read-out: Diameter of inhibition zone
[11] = 0.4 mg per disc, 9 mm disc (fluconazole 0.025 mg, 6 mm disc), - no zone, read-out: Diameter of inhibition zone

MIC (C. krusei ATCC 6258) | MIC (C. tropicalis ATCC 750) | MIC (S. cerevisiae ATCC 9763) | MIC (C. tropicalis IBA 171) | MIC (C. albicans ATCC 90028) | MIC [6] | MIC [7] | MIC (S. aureus ATCC 6538P) | MIC (E. faecalis ATCC 29212) | MIC [8] | MIC [9] | MIC (E. faecium ATCC 6057) | SMILES | zone of inhibition at 100 µg/disc [1] | zone of inhibition at 0.4 mg/disc (B. subtilis ATCC 6633) | viability at 72 h, 12.5 mg/L [4] | viability at 72 h, 25 mg/L [4] | viability at 72 h, 50 mg/L [4] | Average FICI with ceftazidime [5] | The lowest FICI with ceftazidime [5] | zone of inhibition at 0.4 mg/disc [8] | also measured
400 µg/mL (≈ 1980 µM) | > 400 µg/mL | 200 µg/mL (≈ 991 µM) | > 400 µg/mL | > 400 µg/mL | > 400 µg/mL | > 400 µg/mL | 25 µg/mL (≈ 124 µM) | 200 µg/mL (≈ 991 µM) | 50 µg/mL (≈ 248 µM) | 50 µg/mL (≈ 248 µM) | 200 µg/mL (≈ 991 µM) | OB(O)c1ccc(B(O)O)c(F)c1F [1c] | 20 mm | 28 mm | 112 ± 3.8% | 103 ± 3% | 96.7 ± 3.3% | 0.19 | 0.14 | 28 mm | zone of inhibition at 100 µg/disc [2]: 6 mm; zone of inhibition at 100 µg/disc [3]: 18 mm; zone of inhibition at 0.4 mg/disc (S. aureus ATCC 6538P): 22 mm; zone of inhibition at 0.4 mg/disc (E. faecalis ATCC 29212; [10]): 16 mm; zone of inhibition at 0.4 mg/disc [9]: 22 mm; zone of inhibition at 0.4 mg/disc (E. faecium ATCC 6057; [10]): 15 mm
100 µg/mL (≈ 455 µM) | 100 µg/mL (≈ 455 µM) | 50 µg/mL (≈ 228 µM) | 50 µg/mL (≈ 228 µM) | 50 µg/mL (≈ 228 µM) | 100 µg/mL (≈ 455 µM) | 50 µg/mL (≈ 228 µM) | 50 µg/mL (≈ 228 µM) | 400 µg/mL (≈ 1820 µM) | 50 µg/mL (≈ 228 µM) | 200 µg/mL (≈ 910 µM) | 200 µg/mL (≈ 910 µM) | OB(O)c1cc(F)c(B(O)O)c(F)c1F [1f] | 21 mm | 13 mm | 97.4 ± 2.2% | 89.9 ± 1.9% | 78.1 ± 0.9% | 0.24 | 0.21 | 17 mm | zone of inhibition at 100 µg/disc [2]: 6 mm; zone of inhibition at 0.4 mg/disc (C. krusei ATCC 6258; [11]): 19 mm; zone of inhibition at 100 µg/disc [3]: 17 mm; zone of inhibition at 0.4 mg/disc (C. tropicalis ATCC 750; [11]): 18 mm; zone of inhibition at 0.4 mg/disc (S. cerevisiae ATCC 9763): 20 mm; zone of inhibition at 0.4 mg/disc (C. tropicalis IBA 171; [11]): 20 mm; zone of inhibition at 0.4 mg/disc (C. albicans ATCC 90028; [11]): 24 mm; zone of inhibition at 0.4 mg/disc [6]: 20 mm; zone of inhibition at 0.4 mg/disc [7]: 29 mm; zone of inhibition at 0.4 mg/disc (S. aureus ATCC 6538P): 17 mm; zone of inhibition at 0.4 mg/disc [9]: 16 mm
200 µg/mL (≈ 991 µM) | 400 µg/mL (≈ 1980 µM) | 200 µg/mL (≈ 991 µM) | 200 µg/mL (≈ 991 µM) | 200 µg/mL (≈ 991 µM) | 200 µg/mL (≈ 991 µM) | 200 µg/mL (≈ 991 µM) | 25 µg/mL (≈ 124 µM) | > 400 µg/mL | 25 µg/mL (≈ 124 µM) | 200 µg/mL (≈ 991 µM) | > 400 µg/mL | OB(O)c1cc(F)c(B(O)O)c(F)c1 [1d] | 20 mm | 15 mm | 111.6 ± 1.1% | 104 ± 8.9% | 83.3 ± 1.2% | 0.23 | 0.17 | 21 mm | zone of inhibition at 100 µg/disc [2]: 12 mm; zone of inhibition at 100 µg/disc [3]: 17 mm; zone of inhibition at 0.4 mg/disc (S. cerevisiae ATCC 9763): 13 mm; zone of inhibition at 0.4 mg/disc [6]: 14 mm; zone of inhibition at 0.4 mg/disc [7]: 16 mm

SMILES | MIC (C. krusei ATCC 6258) | MIC (C. tropicalis ATCC 750) | MIC (S. cerevisiae ATCC 9763) | MIC (C. tropicalis IBA 171) | MIC (C. albicans ATCC 90028) | MIC [6] | MIC [7] | MIC (S. aureus ATCC 6538P) | MIC (E. faecalis ATCC 29212) | MIC [8] | MIC [9] | MIC (E. faecium ATCC 6057) | zone of inhibition at 100 µg/disc [1] | zone of inhibition at 0.4 mg/disc (B. subtilis ATCC 6633) | viability at 72 h, 12.5 mg/L [4] | viability at 72 h, 25 mg/L [4] | viability at 72 h, 50 mg/L [4] | Average FICI with ceftazidime [5] | The lowest FICI with ceftazidime [5] | zone of inhibition at 0.4 mg/disc [8] | also measured
OB(O)c1cccc(B(O)O)c1 [2a] | > 400 µg/mL | > 400 µg/mL | > 400 µg/mL | 400 µg/mL (≈ 2410 µM) | 400 µg/mL (≈ 2410 µM) | > 400 µg/mL | > 400 µg/mL | 100 µg/mL (≈ 603 µM) | 200 µg/mL (≈ 1210 µM) | 200 µg/mL (≈ 1210 µM) | 400 µg/mL (≈ 2410 µM) | > 400 µg/mL |  | 18 mm | 94.4 ± 2.2% | 75.2 ± 10.3% | 73.1 ± 13.6% | 0.22 | 0.15 | 21 mm | zone of inhibition at 300 µg/disc ([1]; agent 0.3 mg per disc): 22 mm; zone of inhibition at 300 µg/disc ([2]; agent 0.3 mg per disc): 15 mm; zone of inhibition at 300 µg/disc ([3]; agent 0.3 mg per disc): 21 mm; zone of inhibition at 0.4 mg/disc [7]: 14 mm; zone of inhibition at 0.4 mg/disc (S. aureus ATCC 6538P): 20 mm
